From ChEMBL document CHEMBL4834494, “Discovery of the First Non-cGMP Mimetic Small Molecule Activators of cGMP-Dependent Protein Kinase 1 α (PKG1α)” (ACS Med Chem Lett, 2021) come the findings set out here.

The nature of data set [1]: Apparent permeability in dog MDCKII cells. Type of data set: ADME, cell-based, Canis lupus familiaris, MDCK-II. As to conditions: MDCK.
The target of data set [2] is T1, cGMP-dependent protein kinase 1 (Homo sapiens, UniProt Q13976).
T1 sequence (Q13976 whole entry): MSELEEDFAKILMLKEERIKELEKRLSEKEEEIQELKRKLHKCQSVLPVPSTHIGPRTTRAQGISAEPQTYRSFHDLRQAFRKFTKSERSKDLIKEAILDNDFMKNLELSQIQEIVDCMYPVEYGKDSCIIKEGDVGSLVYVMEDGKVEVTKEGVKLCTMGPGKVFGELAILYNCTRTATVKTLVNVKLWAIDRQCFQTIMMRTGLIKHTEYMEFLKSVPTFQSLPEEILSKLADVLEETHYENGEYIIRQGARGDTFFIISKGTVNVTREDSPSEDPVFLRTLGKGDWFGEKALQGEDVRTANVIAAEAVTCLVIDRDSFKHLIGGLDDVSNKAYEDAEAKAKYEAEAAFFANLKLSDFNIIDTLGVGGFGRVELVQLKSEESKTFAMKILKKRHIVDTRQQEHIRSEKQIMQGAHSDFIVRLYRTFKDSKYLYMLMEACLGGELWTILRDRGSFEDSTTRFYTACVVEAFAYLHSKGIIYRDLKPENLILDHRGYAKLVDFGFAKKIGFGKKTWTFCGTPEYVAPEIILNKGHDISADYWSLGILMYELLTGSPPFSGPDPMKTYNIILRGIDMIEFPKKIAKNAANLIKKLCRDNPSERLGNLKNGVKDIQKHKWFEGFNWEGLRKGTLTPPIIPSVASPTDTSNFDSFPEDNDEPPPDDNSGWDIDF
Kind of data set: Activation of PKG1alpha (unknown origin) in human HEK293 cellls assessed as […] phosphorylation at Ser 239 incubated for 3 hrs by HTRF assay. The format is cell-based. In general terms: Time-resolved FRET reads energy transfer from a long-lived donor to a nearby acceptor.

Data set [3] in a line: Solubility of compound by pH 7 measured for 24 hrs by UPLC analysis. Type of data set: physicochemical. As to conditions: buffer.
The target of data set [4] is T1, cGMP-dependent protein kinase 1. Kind of data set: Activation of full length PKG1alpha (unknown origin) using Glass-tide peptide substrate incubated for 120 mins followed by addition of ADP-Glo max reagent incubated for 40 mins. (ADP-Glo first removes unused ATP, then detects ADP through luciferase.)

SMILES strings stand for the structures. In brackets after ≈: the same amount, converted by molar mass.

In general, Papp refers to the rate of passage across a membrane or cell layer, normalised by area and donor concentration. The EC50 is the midpoint of the concentration-response curve. The solubility is the dissolved amount per volume that the medium holds. With `Clc1cc(Cl)cc(CO[C@H]2CCCN(Cc3ncc[nH]3)[C@H]2c2ccccc2)c1`, the Papp in data set [1] came out at 2 ×10⁻⁶ cm/s. The EC50 in data set [2] was above 164 µM. In data set [3], the solubility at 24 h was found to be 120 µM (≈ 50 µg/mL). As to `OC[C@@H](O[C@H]1CCCN(Cc2ccc(-c3nn[nH]n3)cc2)[C@H]1c1ccccc1)c1cc(Cl)cc(Cl)c1`, a half-maximal effect in data set [4] (EC50) was put at 131 µM. On to `O=C(O)c1ccc(CN2CCC[C@H](OCc3cc(Cl)cc(Cl)c3)[C@@H]2c2ccccc2)cn1`, for which, in data set [4], the concentration for a half-maximal effect (EC50) is above 200 µM. In the case of `O=C(O)c1cncc(CN2CCC[C@H](O[C@H](CO)c3cc(Cl)cc(Cl)c3)[C@@H]2c2ccccc2)c1`, the EC50 in data set [4] worked out at 34 µM; in data set [2] it was 28 µM. In data set [1], the Papp came out at 14 ×10⁻⁶ cm/s. Also, the concentration in solution in data set [3] (solubility at 24 h) came to 74 µM (≈ 37.1 µg/mL). Compound `CN1CCC[C@H](O[C@H](CO)c2cc(Cl)cc(Cl)c2)[C@@H]1c1ccccc1` registered a 50% effective concentration (EC50) in data set [4] of 42 µM.

Take `Cn1cc(CN2CCC[C@H](OCc3cc(Cl)cc(Cl)c3)[C@@H]2c2ccccc2)cn1`: in data set [4], the EC50 amounted to 110 µM. Still for that read-out and setting: for `Clc1cc(Cl)cc(CO[C@H]2CCCN(Cc3ccccn3)[C@H]2c2ccccc2)c1` the value was above 200 µM. Regarding `CN1CCC[C@H](OCc2cc(Cl)cc(Cl)c2)[C@@H]1c1ccccc1`, the half-maximal effective concentration (EC50) in data set [4] is above 200 µM.

`Cn1ccnc1CN1CCC[C@H](OCc2cc(Cl)cc(Cl)c2)[C@@H]1c1ccccc1` had a half-maximal effective concentration (EC50) in data set [4] of 165 µM.

Turning to `OC[C@@H](O[C@H]1CCCN(Cc2ncc[nH]2)[C@H]1c1ccccc1)c1cc(Cl)cc(Cl)c1`, the Papp in data set [1] was found to be 19 ×10⁻⁶ cm/s. In data set [2], the EC50 was found to be 8.8 µM. In data set [3], this compound had a solubility at 24 h of 60 µM (≈ 26.8 µg/mL). As to `O=C(O)c1ccc(CN2CCC[C@H](OCc3cc(Cl)cc(Cl)c3)[C@@H]2c2ccccc2)cc1`, the concentration giving a half-maximal response (EC50) in data set [4] is 76 µM. Compound `Clc1cc(Cl)cc(CO[C@H]2CCCN(Cc3cccnc3)[C@H]2c2ccccc2)c1` yielded an EC50 in data set [4] of 112 µM. `O=C(O)c1cncc(CN2CCC[C@H](OCc3cc(Cl)cc(Cl)c3)[C@@H]2c2ccccc2)c1`: the EC50 in data set [4] is 117 µM. The compound `Clc1cc(Cl)cc(CO[C@H]2CCCN(Cc3ccc(-c4nn[nH]n4)cc3)[C@H]2c2ccccc2)c1` showed a half-maximal effective concentration (EC50) in data set [4] of 74 µM. In the case of `O=C(O)c1ccc(CN2CCC[C@H](O[C@H](CO)c3cc(Cl)cc(Cl)c3)[C@@H]2c2ccccc2)cc1`, the results for the EC50 in data set [4] and in data set [2] were 11 µM and 15 µM, respectively. Also, the apparent permeability coefficient (Papp) in data set [1] was determined as 16 ×10⁻⁶ cm/s. In data set [3], this compound had a solubility at 24 h of 85 µM (≈ 42.5 µg/mL). Consider `COc1cc(C(=O)O)ccc1CN1CCC[C@H](OCc2cc(Cl)cc(Cl)c2)[C@@H]1c1ccccc1`, for which a half-maximal effect in data set [4] (EC50) was put at 62 µM. Regarding `OC[C@@H](O[C@H]1CCCN(Cc2cccc3nonc23)[C@H]1c1ccccc1)c1cc(Cl)cc(Cl)c1`, the figures for the concentration for a half-maximal effect (EC50) in data set [4] and in data set [2] were 8 µM and 141 µM, respectively. The Papp in data set [1] is 11 ×10⁻⁶ cm/s. For the same compound, the concentration in solution in data set [3] (solubility at 24 h) was 154 µM (≈ 76.8 µg/mL). `Clc1cc(Cl)cc(CO[C@H]2CCCN(Cc3ncco3)[C@H]2c2ccccc2)c1`: in data set [4], the EC50 is above 200 µM.

`Clc1cc(Cl)cc(CO[C@H]2CCCN(Cc3nccs3)[C@H]2c2ccccc2)c1` showed an EC50 in data set [4] above 200 µM. With `O=C(O)c1ccc2c(CN3CCC[C@H](O[C@H](CO)c4cc(Cl)cc(Cl)c4)[C@@H]3c3ccccc3)c[nH]c2c1`, the results for the EC50 in data set [4] and in data set [2] were 22 µM and 140 µM, respectively. Further, the Papp in data set [1] stood at 4 ×10⁻⁶ cm/s. The solubility at 24 h in data set [3] came to 128 µM (≈ 69.1 µg/mL). For `COC(=O)Nn1c(C[C@H]2CCC[C@H](OCc3cc(C(F)(F)F)cc(C(F)(F)F)c3)[C@@H]2c2ccccc2)n[nH]c1=O`, the 50% effective concentration (EC50) in data set [4] came to 4.5 µM; in data set [2] it was 12 µM. For the same compound, in data set [1], the apparent permeability coefficient (Papp) was 15 ×10⁻⁶ cm/s. Moreover, in data set [3], the solubility at 24 h is 154 µM (≈ 88.2 µg/mL). Take `OC[C@@H](O[C@H]1CCCN(Cc2ccccc2Cc2nnco2)[C@H]1c1ccccc1)c1cc(Cl)cc(Cl)c1`: the response in data set [4] was half-maximal at 3.7 µM (EC50). Still for that read-out and setting: for `O=C(O)c1ccc(CN2CCC[C@H](OCc3cc(Cl)cc(Cl)c3)[C@@H]2c2ccccc2)s1` the value was 76 µM; for `Clc1cc(Cl)cc(CO[C@H]2CCCN(Cc3ccccc3)[C@H]2c2ccccc2)c1`, above 200 µM; for `Clc1cc(Cl)cc(CO[C@H]2CCCN(Cc3ccncc3)[C@H]2c2ccccc2)c1`, above 200 µM. Same read-out and setting: under `COc1ccc(C(=O)O)cc1CN1CCC[C@H](OCc2cc(Cl)cc(Cl)c2)[C@@H]1c1ccccc1` stands 123 µM.

In turn, `C[C@@H](O[C@H]1OCCN(Cc2n[nH]c(=O)[nH]2)[C@H]1c1ccc(F)cc1)c1cc(C(F)(F)F)cc(C(F)(F)F)c1` [APREPITANT] yielded an EC50 in data set [4] above 200 µM.
